Results published in PMC10065276, “Enhanced therapeutic window for antimicrobial Pept-ins by investigating their structure-activity relationship” (PLOS ONE, 2023).
Converted amounts (≈) assume the structure as drawn. “And” between values parts separate entries of the source, which are not always exact repeats. Equal values may be shown once. Residues, ends and D or L forms follow the SMILES beside them.

tested on: E. coli BL21; assay: not given; conditions: BL21, 17 h
Summary of the method: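 EUCAST broth microdilution in Mueller-Hinton medium; end-exponential culture diluted to 0.005 McF (~1.5x10^6 CFU/mL) before 1:1 mixing with two-fold peptide dilutions (0.75 to 100 μg/mL), triplicates.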

| Compound | BL21 MIC |
| --- | --- |
| CC[C@H](C)[C@H](NC(=O)CNC(=O)[C@H](CC(C)C)NC(=O)[C@H](CCCNC(=N)N)NC(=O)[C@@H]1CCCN1C(=O)[C@H](C)NC(=O)[C@H](CCCNC(=N)N)NC(=O)[C@H](CC(C)C)NC(=O)[C@H](C)NC(=O)[C@@H](NC(=O)[C@H](C)NC(=O)[C@@H](NC(=O)CNC(=O)[C@H](CC(C)C)NC(=O)[C@@H](N)CCCNC(=N)N)[C@@H](C)CC)C(C)C)C(=O)N[C@@H](C)C(=O)N[C@H](C(=O)N[C@@H](C)C(=O)N[C@@H](CC(C)C)C(=O)N[C@@H](C)C(=O)N[C@@H](CCCNC(=N)N)C(=O)O)C(C)C [Peptide P33_4R_4] (H-RLGIAVALRAPRLGIAVALAR-OH) | 12.50 µg/mL |
| CC[C@H](C)[C@H](NC(=O)CNC(=O)[C@H](CC(C)C)NC(=O)[C@H](C)NC(=O)[C@@H]1CCCN1C(=O)[C@H](CCCNC(=N)N)NC(=O)[C@H](CCCNC(=N)N)NC(=O)[C@H](CC(C)C)NC(=O)[C@H](C)NC(=O)[C@@H](NC(=O)[C@H](C)NC(=O)[C@@H](NC(=O)CNC(=O)[C@H](CC(C)C)NC(=O)[C@@H](N)CCCNC(=N)N)[C@@H](C)CC)C(C)C)C(=O)N[C@@H](C)C(=O)N[C@H](C(=O)N[C@@H](C)C(=O)N[C@@H](CC(C)C)C(=O)N[C@@H](C)C(=O)N[C@@H](CCCNC(=N)N)C(=O)O)C(C)C [Peptide P33_4R_5] (H-RLGIAVALRRPALGIAVALAR-OH) | 12.50 µg/mL |
| CC[C@H](C)[C@H](NC(=O)CNC(=O)[C@H](CC(C)C)NC(=O)[C@H](CCCNC(=N)N)NC(=O)[C@@H]1CCCN1C(=O)[C@H](CCCNC(=N)N)NC(=O)[C@H](CCCNC(=N)N)NC(=O)[C@H](CC(C)C)NC(=O)[C@H](C)NC(=O)[C@@H](NC(=O)[C@H](C)NC(=O)[C@@H](NC(=O)CNC(=O)[C@H](CC(C)C)NC(=O)[C@@H](N)CCCNC(=N)N)[C@@H](C)CC)C(C)C)C(=O)N[C@@H](C)C(=O)N[C@H](C(=O)N[C@@H](C)C(=O)N[C@@H](CC(C)C)C(=O)N[C@@H](C)C(=O)N[C@@H](C)C(=O)O)C(C)C [Peptide P33_4R_6] (H-RLGIAVALRRPRLGIAVALAA-OH) | 12.50 µg/mL |
| CC(C)C[C@H](NC(=O)CNC(=O)[C@H](CCCNC(=N)N)NC(=O)[C@@H]1CCCN1C(=O)[C@H](CCCNC(=N)N)NC(=O)[C@H](C)NC(=O)[C@@H](NC(=O)[C@H](CC(C)C)NC(=O)[C@H](C)NC(=O)[C@H](CC(C)C)NC(=O)CNC(=O)[C@H](CC(C)C)NC(=O)CNC(=O)[C@@H](N)CCCNC(=N)N)C(C)C)C(=O)NCC(=O)N[C@@H](CC(C)C)C(=O)N[C@@H](C)C(=O)N[C@@H](CC(C)C)C(=O)N[C@H](C(=O)N[C@@H](C)C(=O)N[C@@H](CCCNC(=N)N)C(=O)O)C(C)C [R9A, R20A] (H-RGLGLALVARPRGLGLALVAR-OH) | 50.00 µg/mL |
| CC(C)C[C@H](NC(=O)CNC(=O)[C@H](CCCNC(=N)N)NC(=O)[C@@H]1CCCN1C(=O)[C@H](CCCNC(=N)N)NC(=O)[C@H](C)NC(=O)[C@@H](NC(=O)[C@H](CC(C)C)NC(=O)[C@H](C)NC(=O)[C@H](CC(C)C)NC(=O)CNC(=O)[C@H](CC(C)C)NC(=O)CNC(=O)[C@@H](N)CCCNC(=N)N)C(C)C)C(=O)NCC(=O)N[C@@H](CC(C)C)C(=O)N[C@@H](C)C(=O)N[C@@H](CC(C)C)C(=O)N[C@H](C(=O)N[C@@H](CCCNC(=N)N)C(=O)N[C@@H](C)C(=O)O)C(C)C [R9A, R21A] (H-RGLGLALVARPRGLGLALVRA-OH) | >100.00 µg/mL |
| CC(C)C[C@H](NC(=O)CNC(=O)[C@H](CCCNC(=N)N)NC(=O)[C@@H]1CCCN1C(=O)[C@H](CCCNC(=N)N)NC(=O)[C@H](CCCNC(=N)N)NC(=O)[C@H](CO)NC(=O)[C@H](CC(C)C)NC(=O)[C@H](C)NC(=O)[C@H](CC(C)C)NC(=O)CNC(=O)[C@H](CC(C)C)NC(=O)CNC(=O)[C@@H](N)CCCNC(=N)N)C(=O)NCC(=O)N[C@@H](CC(C)C)C(=O)N[C@@H](C)C(=O)N[C@@H](CC(C)C)C(=O)N[C@@H](CO)C(=O)N[C@@H](CCCNC(=N)N)C(=O)N[C@@H](CCCNC(=N)N)C(=O)O [V7S (P2)] (H-RGLGLALSRRPRGLGLALSRR-OH) | 100.00 µg/mL |
| CC(C)C[C@H](NC(=O)CNC(=O)[C@H](CCCNC(=N)N)NC(=O)[C@@H]1CCCN1C(=O)[C@H](CCCNC(=N)N)NC(=O)[C@H](CCCNC(=N)N)NC(=O)[C@@H](NC(=O)[C@H](CC(C)C)NC(=O)[C@H](C)NC(=O)[C@H](CC(C)C)NC(=O)CNC(=O)[C@H](CC(C)C)NC(=O)CNC(=O)[C@@H](N)CCCNC(=N)N)[C@@H](C)O)C(=O)NCC(=O)N[C@@H](CC(C)C)C(=O)N[C@@H](C)C(=O)N[C@@H](CC(C)C)C(=O)N[C@H](C(=O)N[C@@H](CCCNC(=N)N)C(=O)N[C@@H](CCCNC(=N)N)C(=O)O)[C@@H](C)O [V7T (P2)] (H-RGLGLALTRRPRGLGLALTRR-OH) | 50.00 µg/mL |

tested on: E. coli ATCC clinical isolates; assay: microbe, parasite or virus in culture; type: cell-based; conditions: Escherichia coli, S12 Table; each table row is one E. coli clinical isolate (34 isolates); highest concentration tested 32 μg/mL; read-out: MIC
Text: To address the emerging antibiotic resistance issue, it is not only required to develop active antibiotics against wildtype bacteria, but also against the clinically isolated multidrug-resistant strains. Therefore, we determined whether P2 variants with a 4-fold lower MICs (P2_A5F, V7Y (P2), P2_H12_GV, P2_H12_PEG) (S12 Table) will also show improved antimicrobial activity against these multidrug-resistant strains. Since a high net positive charge could carry inherent developability challenges, we further explored the therapeutic potential of P2 variants with reduced net charge (P2_4R_GV and P2_4R_L) (S12 Table) by determining their antimicrobial activity against these clinically isolated multidrug-resistant strains. The mode of action of these derivatives remains to be inducing protein aggregation in bacteria as shown by the formation of IBs stained by pFTAA after Pept-in treatment (P2, P2-4R-GV, P2_A5F, V7Y (P2), P2_H12_GV, P2_H12_PEG) (S6A Fig) and the presence of a large number of proteins with different molecular weights in purified IBs as shown by the Coomassie staining (S6B Fig), in contrast to the absence of pFTAA staining (S6A Fig) and the presence of only two faint protein bands (S6B Fig) for buffer and control peptide treated bacteria. For clinically isolated multidrug-resistant strains, in addition to the 34 clinical isolates of E. coli ATCC, we added 12 Acinetobacter baumannii (A. baumannii) isolates and 12 Klebsiella pneumoniae (K. pneumoniae) isolates to broaden the selection of the bacterial spectrum.
The peptide MIC was determined via the broth microdilution assay according to the EUCAST guideline, using 96-well polystyrene flat-bottom microtiter plates (BD Biosciences). Briefly, a single colony was inoculated in 5 mL Mueller-Hinton (MH) medium and incubated, while shaking at 37°C, to the end-exponential growth phase. The bacterial culture was subsequently diluted to 0.005 McFarland (McF) (~1.5x10^6 CFU/mL) with fresh MH medium. […] The MIC was determined as the lowest peptide concentration without visible bacterial growth.

| MIC | Compound |
| --- | --- |
| 1 µg/mL (≈ 2.14 µM) | NC[C@H]1O[C@H](O[C@H]2[C@H](O)[C@@H](O[C@H]3O[C@H](CO)[C@@H](O)[C@H](N)[C@H]3O)[C@H](N)C[C@@H]2N)[C@H](N)C[C@@H]1O [Tobramycin] |

same assay, conditions: S12 Table; each table row is one E. coli clinical isolate (34 isolates); highest concentration tested 32 μg/mL

| MIC | Compound |
| --- | --- |
| 0.5 µg/mL and >1 µg/mL | NC[C@H]1O[C@H](O[C@H]2[C@H](O)[C@@H](O[C@H]3O[C@H](CO)[C@@H](O)[C@H](N)[C@H]3O)[C@H](N)C[C@@H]2N)[C@H](N)C[C@@H]1O [Tobramycin] |

tested on: HEK 293T cells; assay: CellTiter Blue assay; type: cell-based, human; conditions: about 16 hours treatment, viability normalised to vehicle
Protocol: HEK 293T cells (ATCC CRL-3216) were grown in DMEM medium, supplemented with 10% FBS, 1 mM sodium pyruvate, non-essential amino acids. 100 μL of 10 000 cells were grown in flat-bottom 96-well plates (Fischer Scientific) overnight until cells are attached to the plate. Peptides were dissolved with Mini-plasco Nacl 0.9% (B. Braun) to 2 mg/mL and diluted to indicated concentrations using cell culture medium. Cells were treated by adding 100 μL peptides to each well for about 16 hours. Cells lysed with 1% Triton X-100 was included as a positive control. The toxicity of the peptide treatments was evaluated using the CellTiter-Blue Cell Viability Assay according to the instructions of the manufacturer (Promega, USA). The metabolic activity of viable cells is measured by recording fluorescence intensity at 590 nm after excitation at 560 nm. Cell viability is determined by normalising the fluorescence intensity of peptide- or triton-treated cells to the vehicle-treated sample.

| Compound | toxicity on HEK 293T cells |
| --- | --- |
| CC(C)C[C@H](NC(=O)CNC(=O)[C@H](CCCNC(=N)N)NC(=O)[C@H](CC(C)C)NC(=O)[C@H](C)NC(=O)[C@H](CCCNC(=N)N)NC(=O)[C@@H](NC(=O)[C@H](CC(C)C)NC(=O)[C@H](C)NC(=O)[C@H](CC(C)C)NC(=O)CNC(=O)[C@H](CC(C)C)NC(=O)CNC(=O)[C@@H](N)CCCNC(=N)N)C(C)C)C(=O)NCC(=O)N[C@@H](CC(C)C)C(=O)N[C@@H](C)C(=O)N[C@@H](CC(C)C)C(=O)N[C@H](C(=O)N[C@@H](C)C(=O)N[C@@H](CCCNC(=N)N)C(=O)O)C(C)C [Peptide P2_4R_L] (H-RGLGLALVRALRGLGLALVAR-OH) | induced toxicity effects |
| CC(C)C[C@H](NC(=O)CNC(=O)[C@H](CCCNC(=N)N)NC(=O)[C@@H](NC(=O)CNC(=O)[C@H](CCCNC(=N)N)NC(=O)[C@H](CCCNC(=N)N)NC(=O)[C@@H](NC(=O)[C@H](CC(C)C)NC(=O)[C@H](C)NC(=O)[C@H](CC(C)C)NC(=O)CNC(=O)[C@H](CC(C)C)NC(=O)CNC(=O)[C@@H](N)CCCNC(=N)N)C(C)C)C(C)C)C(=O)NCC(=O)N[C@@H](CC(C)C)C(=O)N[C@@H](C)C(=O)N[C@@H](CC(C)C)C(=O)N[C@H](C(=O)N[C@@H](CCCNC(=N)N)C(=O)N[C@@H](CCCNC(=N)N)C(=O)O)C(C)C [Peptide P2_GV] (H-RGLGLALVRRGVRGLGLALVRR-OH) | induced toxicity effects |
| CC(C)C[C@H](NC(=O)CNC(=O)[C@H](CCCNC(=N)N)NC(=O)[C@@H]1CCCN1C(=O)[C@H](CCCNC(=N)N)NC(=O)[C@H](CCCNC(=N)N)NC(=O)[C@@H](NC(=O)[C@H](CC(C)C)NC(=O)[C@H](C)NC(=O)[C@H](CC(C)C)NC(=O)CNC(=O)[C@H](CC(C)C)NC(=O)CNC(=O)[C@@H](NC(=O)[C@H](Cc1ccccc1)NC(=O)[C@@H](NC(=O)[C@@H](N)CCCNC(=N)N)C(C)C)C(C)C)C(C)C)C(=O)NCC(=O)N[C@@H](CC(C)C)C(=O)N[C@@H](C)C(=O)N[C@@H](CC(C)C)C(=O)N[C@H](C(=O)N[C@@H](CCCNC(=N)N)C(=O)N[C@@H](CCCNC(=N)N)C(=O)O)C(C)C [Peptide P2_VFV] (H-RVFVGLGLALVRRPRGLGLALVRR-OH) | higher toxicity at 400 μg/mL and 200 μg/mL than P2 |
